Source: publication PMC7884382, “A Phase 1 study of RO6870810, a novel bromodomain and extra-terminal protein inhibitor, in patients with NUT carcinoma, other solid tumours, or diffuse large B-cell lymphoma” (British Journal of Cancer, 2020)
Where two headings read alike, the source gives them in different places.

Conditions: in vivo
Description: Patients were considered evaluable for safety if they received ≥1 injection of the study drug. All adverse events (AEs) were graded per the National Cancer Institute’s Common Terminology Criteria for Adverse Events (CTCAE) version 4.03.
Grade ≤3 drug-related fever or skin or SC tissue disorders localised to the site of injection—including grade ≤3 rash, pruritus, skin induration or pain—were not considered DLTs.
Data for patients with NC and lymphoma were evaluated but not included in the MTD determination.

Cc1sc2c(c1C)C(c1ccc(Cl)cc1)=N[C@@H](CC(=O)NCCCN1CCN(C)CC1)c1nnc(C)n1-2 [RO6870810]
Treatment-emergent AE: Injection site induration (human, 0.06 mg/kg): 0 n (%) | Treatment-emergent AE: Injection site pain (human, 0.06 mg/kg): 1 (33.3) n (%) | Treatment-emergent AE: Injection site pruritus (human, 0.06 mg/kg): 1 (33.3) n (%) | Treatment-emergent AE: Injection site reaction (human, 0.06 mg/kg): 0 n (%) | Treatment-emergent AE: Injection site swelling (human, 0.06 mg/kg): 0 n (%) | Treatment-emergent AE: Malaise (human, 0.06 mg/kg): 1 (33.3) n (%) | Treatment-emergent AE: Myalgia (human, 0.06 mg/kg): 0 n (%) | Treatment-emergent AE: Nausea (human, 0.06 mg/kg): 0 n (%) | Treatment-emergent AE: Thrombocytopenia (human, 0.06 mg/kg): 0 n (%) | Treatment-emergent AE: Vomiting (human, 0.06 mg/kg): 0 n (%) | Treatment-emergent AE: Abdominal pain (human, 0.1 mg/kg): 1 (25.0) n (%) | Treatment-emergent AE: Anemia (human, 0.1 mg/kg): 2 (50.0) n (%) | Treatment-emergent AE: Back pain (human, 0.1 mg/kg): 2 (50.0) n (%) | Treatment-emergent AE: Blood bilirubin increased (human, 0.1 mg/kg): 1 (25.0) n (%) | Treatment-emergent AE: Constipation (human, 0.1 mg/kg): 3 (75.0) n (%) | Treatment-emergent AE: Cough (human, 0.1 mg/kg): 1 (25.0) n (%) | Treatment-emergent AE: Decreased appetite (human, 0.1 mg/kg): 4 (100) n (%) | Treatment-emergent AE: Dehydration (human, 0.1 mg/kg): 2 (50.0) n (%) | Treatment-emergent AE: Diarrhea (human, 0.1 mg/kg): 3 (75.0) n (%) | Treatment-emergent AE: Dizziness (human, 0.1 mg/kg): 2 (50.0) n (%) | Treatment-emergent AE: Dry mouth (human, 0.1 mg/kg): 1 (25.0) n (%) | Treatment-emergent AE: Dysgeusia (human, 0.1 mg/kg): 0 n (%) | Treatment-emergent AE: Dyspnea (human, 0.1 mg/kg): 1 (25.0) n (%) | Treatment-emergent AE: Fatigue (human, 0.1 mg/kg): 3 (75.0) n (%) | Treatment-emergent AE: Headache (human, 0.1 mg/kg): 1 (25.0) n (%) | Treatment-emergent AE: Hypomagnesaemia (human, 0.1 mg/kg): 0 n (%) | Treatment-emergent AE: Injection site erythema (human, 0.1 mg/kg): 2 (50.0) n (%) | Treatment-emergent AE: Injection site induration (human, 0.1 mg/kg): 3 (75.0) n (%) | Treatment-emergent AE: Injection site pain (human, 0.1 mg/kg): 1 (25.0) n (%) | Treatment-emergent AE: Injection site pruritus (human, 0.1 mg/kg): 0 n (%) | Treatment-emergent AE: Injection site reaction (human, 0.1 mg/kg): 0 n (%) | Treatment-emergent AE: Injection site swelling (human, 0.1 mg/kg): 1 (25.0) n (%) | Treatment-emergent AE: Malaise (human, 0.1 mg/kg): 1 (25.0) n (%) | Treatment-emergent AE: Myalgia (human, 0.1 mg/kg): 1 (25.0) n (%) | Treatment-emergent AE: Nausea (human, 0.1 mg/kg): 2 (50.0) n (%) | Treatment-emergent AE: Thrombocytopenia (human, 0.1 mg/kg): 0 n (%) | Treatment-emergent AE: Vomiting (human, 0.1 mg/kg): 4 (100) n (%) | Treatment-emergent AE: Abdominal pain (human, 0.2 mg/kg): 1 (25.0) n (%) | Treatment-emergent AE: Anemia (human, 0.2 mg/kg): 0 n (%) | Treatment-emergent AE: Back pain (human, 0.2 mg/kg): 1 (25.0) n (%) | Treatment-emergent AE: Blood bilirubin increased (human, 0.2 mg/kg): 1 (25.0) n (%) | Treatment-emergent AE: Constipation (human, 0.2 mg/kg): 1 (25.0) n (%) | Treatment-emergent AE: Cough (human, 0.2 mg/kg): 0 n (%) | Treatment-emergent AE: Decreased appetite (human, 0.2 mg/kg): 3 (75.0) n (%) | Treatment-emergent AE: Dehydration (human, 0.2 mg/kg): 0 n (%) | Treatment-emergent AE: Diarrhea (human, 0.2 mg/kg): 1 (25.0) n (%) | Treatment-emergent AE: Dizziness (human, 0.2 mg/kg): 1 (25.0) n (%) | Treatment-emergent AE: Dry mouth (human, 0.2 mg/kg): 1 (25.0) n (%) | Treatment-emergent AE: Dysgeusia (human, 0.2 mg/kg): 1 (25.0) n (%) | Treatment-emergent AE: Dyspnea (human, 0.2 mg/kg): 2 (50.0) n (%) | Treatment-emergent AE: Fatigue (human, 0.2 mg/kg): 2 (50.0) n (%) | Treatment-emergent AE: Headache (human, 0.2 mg/kg): 1 (25.0) n (%) | Treatment-emergent AE: Hypomagnesaemia (human, 0.2 mg/kg): 0 n (%) | Treatment-emergent AE: Injection site erythema (human, 0.2 mg/kg): 3 (75.0) n (%) | Treatment-emergent AE: Injection site induration (human, 0.2 mg/kg): 2 (50.0) n (%) | Treatment-emergent AE: Injection site pain (human, 0.2 mg/kg): 2 (50.0) n (%) | Treatment-emergent AE: Injection site pruritus (human, 0.2 mg/kg): 1 (25.0) n (%) | Treatment-emergent AE: Injection site reaction (human, 0.2 mg/kg): 0 n (%) | Treatment-emergent AE: Injection site swelling (human, 0.2 mg/kg): 2 (50.0) n (%) | Treatment-emergent AE: Malaise (human, 0.2 mg/kg): 1 (25.0) n (%) | Treatment-emergent AE: Myalgia (human, 0.2 mg/kg): 0 n (%) | Treatment-emergent AE: Nausea (human, 0.2 mg/kg): 2 (50.0) n (%) | Treatment-emergent AE: Thrombocytopenia (human, 0.2 mg/kg): 0 n (%) | Treatment-emergent AE: Vomiting (human, 0.2 mg/kg): 2 (50.0) n (%) | Treatment-emergent AE: Abdominal pain (human, 0.3 mg/kg): 1 (16.7) n (%) | Treatment-emergent AE: Anemia (human, 0.3 mg/kg): 2 (33.3) n (%) | Treatment-emergent AE: Back pain (human, 0.3 mg/kg): 0 n (%) | Treatment-emergent AE: Blood bilirubin increased (human, 0.3 mg/kg): 1 (16.7) n (%) | Treatment-emergent AE: Constipation (human, 0.3 mg/kg): 0 n (%) | Treatment-emergent AE: Cough (human, 0.3 mg/kg): 0 n (%) | Treatment-emergent AE: Decreased appetite (human, 0.3 mg/kg): 6 (100) n (%) | Treatment-emergent AE: Dehydration (human, 0.3 mg/kg): 2 (33.3) n (%) | Treatment-emergent AE: Diarrhea (human, 0.3 mg/kg): 2 (33.3) n (%) | Treatment-emergent AE: Dizziness (human, 0.3 mg/kg): 1 (16.7) n (%) | Treatment-emergent AE: Dry mouth (human, 0.3 mg/kg): 2 (33.3) n (%) | Treatment-emergent AE: Dysgeusia (human, 0.3 mg/kg): 1 (16.7) n (%) | Treatment-emergent AE: Dyspnea (human, 0.3 mg/kg): 0 n (%) | Treatment-emergent AE: Fatigue (human, 0.3 mg/kg): 2 (33.3) n (%) | Treatment-emergent AE: Headache (human, 0.3 mg/kg): 3 (50.0) n (%) | Treatment-emergent AE: Hypomagnesaemia (human, 0.3 mg/kg): 1 (16.7) n (%) | Treatment-emergent AE: Injection site erythema (human, 0.3 mg/kg): 3 (50.0) n (%) | Treatment-emergent AE: Injection site induration (human, 0.3 mg/kg): 2 (33.3) n (%) | Treatment-emergent AE: Injection site pain (human, 0.3 mg/kg): 2 (33.3) n (%) | Treatment-emergent AE: Injection site pruritus (human, 0.3 mg/kg): 2 (33.3) n (%) | Treatment-emergent AE: Injection site reaction (human, 0.3 mg/kg): 0 n (%) | Treatment-emergent AE: Injection site swelling (human, 0.3 mg/kg): 2 (33.3) n (%) | Treatment-emergent AE: Malaise (human, 0.3 mg/kg): 1 (16.7) n (%) | Treatment-emergent AE: Myalgia (human, 0.3 mg/kg): 3 (50.0) n (%) | Treatment-emergent AE: Nausea (human, 0.3 mg/kg): 3 (50.0) n (%) | Treatment-emergent AE: Thrombocytopenia (human, 0.3 mg/kg): 1 (16.7) n (%) | Treatment-emergent AE: Vomiting (human, 0.3 mg/kg): 2 (33.3) n (%) | Treatment-emergent AE: Injection site swelling (human, 0.65 mg/kg): 0 n (%) | Recommended phase 2 dose (human, sc): 0.65 mg/kg | DLTs due to thrombocytopenia: no DLTs due to thrombocytopenia | Left ventricular ejection fraction after reduction: 45–50%
